From patent EP2812315B1, “PYRROLIC DERIVATIVES, PROCESSES FOR PREPARING THE SAME AND THEIR USES AS A DRUG” (Universite Joseph Fourier, priority 2012, dated 2013)
Converted amounts (≈) assume the structure as drawn.

Experiments:
Type in all cases: cell-based
[1] = test system: Staphylococcus aureus ATCC 29213; assay: MIC determination, microdilution method (CLSI M07-A8); conditions: ATCC29213; Staphylococcus aureus ATCC 29213; 5 x 10^5 CFU/mL; 18 hours incubation; read-out: MIC
Experimental: (§1) The microdilution method recommended by the Clinical and Laboratory Standard Institute [M07-A8, Vol.29, N°2] was used. The activity of pyrrolic compounds was tested against 29 bacterial strains belonging to 17 different species and 12 different genera (Staphylococcus, Streptococcus, Enterococcus, […], Bacillus, Haetttophilus, Escherichia, Klebsiella, Enterobacter, Serratia, Pseudomonas, and Acinetobacter). Bacterial inocula were prepared in Mueller Hinton broth (MH2, bioMérieux, Marcy L'Etoile, France), supplemented with 10% sheep blood for fastidious species (i.e., Streptococcus pneumoniae and Haemophilus influenzae). They were dispensed in 96 well microtiter plates (5 x 10^5 CFU/mL of final inoculum). Pyrrolic compounds were added to the wells as to obtain two-fold serial concentrations (0.25-64 mg/L). Plates were incubated at 37°C, in 5% CO2 enriched atmosphere for fastidious species only. MICs were read after 18 hours incubation of cultures, and corresponded to the minimum pyrrolic compound concentration that allowed complete visual growth inhibition of bacteria. Drug-free cultures served as growth controls. Cultures receiving gentamicine, ciprofloxacine or cefotaxime served as positive controls.

[2] = test system: Klebsiella pneumoniae ATCC 35657; assay: as above; conditions: ATCC35657; Klebsiella pneumoniae ATCC 35657; 18 hours incubation; read-out: MIC
Experimental: as §1

[3] = test system: Escherichia coli ATCC 25922; assay: as above; conditions: ATCC25922; Escherichia coli ATCC 25922; 18 hours incubation; read-out: MIC
Experimental: as §1

[4] = test system: Serratia marcescens CIP 103551; assay: as above; conditions: CIP103551; Serratia marcescens CIP 103551; 18 hours incubation; read-out: MIC
Experimental: as §1

[5] = test system: Staphylococcus aureus ATCC 25923; assay: as above; conditions: ATCC25923; Staphylococcus aureus ATCC 25923; 5 x 10^5 CFU/mL; 18 hours incubation; read-out: MIC
Experimental: as §1

[6] = test system: Staphylococcus epidermidis ATCC 12228; assay: as above; conditions: ATCC12228; Staphylococcus epidermidis ATCC 12228; 5 x 10^5 CFU/mL; 18 hours incubation; read-out: MIC
Experimental: as §1

[7] = test system: Acinetobacter baumanii ATCC 19606; assay: as above; conditions: Acinetobacter baumannii, ATCC19606; Acinetobacter baumanii ATCC 19606; 18 hours incubation; read-out: MIC
Experimental: as §1

[8] = test system: Staphylococcus aureus (SA-1199B, NorA); assay: Other MIC determination, microdilution method (CLSI M07-A9) with modifications; conditions: 18 h
Experimental: The microdilution method recommended by the Clinical and Laboratory Standard Institute [M07-A9, Vol.32, N°2] was used with the following modifications.
Bacterial inocula were prepared in Mueller Hinton broth (MH2, BioMérieux, Marcy L'Etoile, France). They were dispensed in 96 well microtiter plates (10^6 CFU/ml of final inoculum, 192 µL per well).
To avoid cross-contaminations in microtiter plates, one row was left blank between each strain tested. Microplates were incubated for 18h at 37 °C in ambient air. Then MICs were read visually and, in case of visual reading difficulties, confirmed using a spectrophotometer at a wavelength of 630 nm (BioTek® EL808 Absorbance Microplate Reader). MICs corresponded to the minimum pyrrolic compound concentrations that allowed complete visual growth inhibition of bacteria. Drug-free cultures served as growth controls.
We used four Staphylococcus aureus strains. Two reference strains were provided by the French reference center for Staphylococcus spp. (Lyon, France), including one methicillin-susceptible (MSSA 476) and one methicillin-resistant (MRSA 252) S. aureus strains. The two remaining S. aureus strains were purchased from the CRBIP (Centre de Ressources Biologiques de l'Institut Pasteur): a vancomycin-intermediate strain (ATCC 106414) and a S. aureus strain (SA-1199B) resistant to fluoroquinolones due to overexpression of the NorA multidrug efflux pump. Coagulase-negative Staphylococcus strains included three reference strains purchased from CRBIP: a methicillin-susceptible S. epidermidis strain (ATCC 12228), a methicillin-resistant S. epidermidis strain (ATCC 49461), and a methicillin-susceptible S. sciuri strain (ATCC 29061). We also used 37 clinical strains belonging to the following coagulase-negative Staphylococcus species: S. arlettae (two strains), S. capitis (nine strains), S. epidermidis (one strain), S. haemolyticus (six strains), S. hominis (eight strains), S. lugdunensis (one strain), S. massiliensis (one strain), S. pettenkoferi (two strains), S. saprophyticus (two strains), S. simulans (one strain), and S. warneri (four strains) . Identification of the clinical strains was first obtained using VITEK® 2 System (Biomérieux) and confirmed by amplification and sequencing of the tuf gene (Reference: Bergeron, M., O. Dauwalder, M. Gouy, A.-M. Freydiere, M. Bes, H. Meugnier, Y. Benito, J. Etienne, G. Lina, F. Vandenesch, and S. Boisset. Species identification of staphylococci by amplification and sequencing of the tuf gene compared to the gap gene and by matrix-assisted laser desorption ionization time-of-flight mass spectrometry, Eur. J. Clin. Microbial. Infect. Dis. 2011, 30, 343-354).
The activity of pyrrolic compounds 3c, 3e-3j and 3n was first tested against 12 Staphylococcus sp. strains, including 7 reference strains and five clinical strains. The MICs of these compounds against Staphylococcus aureus ATCC 106414 (VISA) and Staphylococcus epidermidis ATCC 12228 are in accordance with those described in Tables I and II.

| Structure (SMILES) | MIC [1] | MIC [2] | MIC [3] | MIC [4] | MIC [5] | MIC [6] | MIC [7] | MIC [8] |
| --- | --- | --- | --- | --- | --- | --- | --- | --- |
| CC(=O)c1c(C)[nH]c(C(c2ccc(Cl)cc2)c2[nH]c(C)c(C(C)=O)c2C)c1C [3c] | 2 µg/mL (≈ 5.04 µM) | > 128 µg/mL | > 128 µg/mL | > 128 µg/mL | 4 µg/mL (≈ 10.1 µM) | > 128 µg/mL | > 128 µg/mL | – |
| CC(=O)c1c(C)[nH]c(C(c2cc3ccccc3o2)c2[nH]c(C)c(C(C)=O)c2C)c1C [3e] | 2 µg/mL (≈ 4.97 µM) | > 128 µg/mL | > 128 µg/mL | > 128 µg/mL | 4 µg/mL (≈ 9.94 µM) | > 128 µg/mL | > 128 µg/mL | – |
| CC(=O)c1c(C)[nH]c(C(c2cc3ccccc3s2)c2[nH]c(C)c(C(C)=O)c2C)c1C [3f] | 2 µg/mL (≈ 4.78 µM) | > 128 µg/mL | > 128 µg/mL | > 128 µg/mL | 2 µg/mL (≈ 4.78 µM) | > 128 µg/mL | > 128 µg/mL | 2 µg/mL (≈ 4.78 µM) |
| CC(=O)c1c(C)[nH]c(C(c2ccc(F)cc2)c2[nH]c(C)c(C(C)=O)c2C)c1C [3g] | 1 µg/mL (≈ 2.63 µM) | > 32 µg/mL | > 32 µg/mL | > 32 µg/mL | 2 µg/mL (≈ 5.26 µM) | > 128 µg/mL | > 32 µg/mL | 8 µg/mL (≈ 21 µM) |
| CC(=O)c1c(C)[nH]c(C(c2[nH]c(C)c(C(C)=O)c2C)c2cccc3ccccc23)c1C [3h] | 1 µg/mL (≈ 2.42 µM) | > 128 µg/mL | > 128 µg/mL | > 128 µg/mL | 1 µg/mL (≈ 2.42 µM) | > 128 µg/mL | > 128 µg/mL | 2 µg/mL (≈ 4.85 µM) |
| CC(=O)c1c(C)[nH]c(C(c2[nH]c(C)c(C(C)=O)c2C)c2csc3ccccc23)c1C [3i] | 0.5 µg/mL (≈ 1.19 µM) | > 128 µg/mL | > 128 µg/mL | > 128 µg/mL | 1 µg/mL (≈ 2.39 µM) | > 128 µg/mL | > 128 µg/mL | 1 µg/mL (≈ 2.39 µM) |
| COC(=O)c1cccc(C(c2[nH]c(C)c(C(C)=O)c2C)c2[nH]c(C)c(C(C)=O)c2C)c1 [3j, Methyl-3-[bis(4-acetyl-3,5-dimethyl-1H-pyrrol-2-yl)methyl]benzoate] | 2 µg/mL (≈ 4.76 µM) | > 32 µg/mL | > 32 µg/mL | > 32 µg/mL | 4 µg/mL (≈ 9.51 µM) | > 128 µg/mL | > 32 µg/mL | 8 µg/mL (≈ 19 µM) |
